Inhibition data for 16 molecules are collected here from patent publication US10308643B2, “Heterocyclic compound” (Takeda Pharmaceutical Company Limited, priority 2015, dated 2019).

What all share (type): biochemical
One experiment addresses T1, HDAC1 enzyme (Homo sapiens, UniProt Q13547).
T1 construct: transducing full length HDAC1 and HDAC6 genes into Sf-9 insect cells; GST; purchased SignalChem; host or cells: Sf-9 insect cells
Briefly: HDAC1/6 Enzyme Inhibitory Assay (HDAC-Glo I/II Assay kit), HDAC1. The note with it: 1 μM test compound; wells without enzyme = 100% inhibition; read-out: HDAC1 inhibitory rate (%) (1 μM). The essentials:
(§1)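 Enzyme source: full-length HDAC1/HDAC6, Sf-9, GST-purified. Assay buffer 24 mM Tris-HCl (pH 7.5), 1 mM MgCl2, 0.35 mM KCl, 135 mM NaCl. Compound–enzyme 60 min RT, then HDAC-Glo reagent 20 min RT, luminescence; inhibition relative to no-enzyme control.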

The target in another experiment is T2, HDAC6 enzyme (Homo sapiens, UniProt Q9UBN7).
T2 construct: transducing full length HDAC1 and HDAC6 genes into Sf-9 insect cells; GST; purchased SignalChem; host or cells: Sf-9 insect cells
T2 sequence (Q9UBN7 1-1215): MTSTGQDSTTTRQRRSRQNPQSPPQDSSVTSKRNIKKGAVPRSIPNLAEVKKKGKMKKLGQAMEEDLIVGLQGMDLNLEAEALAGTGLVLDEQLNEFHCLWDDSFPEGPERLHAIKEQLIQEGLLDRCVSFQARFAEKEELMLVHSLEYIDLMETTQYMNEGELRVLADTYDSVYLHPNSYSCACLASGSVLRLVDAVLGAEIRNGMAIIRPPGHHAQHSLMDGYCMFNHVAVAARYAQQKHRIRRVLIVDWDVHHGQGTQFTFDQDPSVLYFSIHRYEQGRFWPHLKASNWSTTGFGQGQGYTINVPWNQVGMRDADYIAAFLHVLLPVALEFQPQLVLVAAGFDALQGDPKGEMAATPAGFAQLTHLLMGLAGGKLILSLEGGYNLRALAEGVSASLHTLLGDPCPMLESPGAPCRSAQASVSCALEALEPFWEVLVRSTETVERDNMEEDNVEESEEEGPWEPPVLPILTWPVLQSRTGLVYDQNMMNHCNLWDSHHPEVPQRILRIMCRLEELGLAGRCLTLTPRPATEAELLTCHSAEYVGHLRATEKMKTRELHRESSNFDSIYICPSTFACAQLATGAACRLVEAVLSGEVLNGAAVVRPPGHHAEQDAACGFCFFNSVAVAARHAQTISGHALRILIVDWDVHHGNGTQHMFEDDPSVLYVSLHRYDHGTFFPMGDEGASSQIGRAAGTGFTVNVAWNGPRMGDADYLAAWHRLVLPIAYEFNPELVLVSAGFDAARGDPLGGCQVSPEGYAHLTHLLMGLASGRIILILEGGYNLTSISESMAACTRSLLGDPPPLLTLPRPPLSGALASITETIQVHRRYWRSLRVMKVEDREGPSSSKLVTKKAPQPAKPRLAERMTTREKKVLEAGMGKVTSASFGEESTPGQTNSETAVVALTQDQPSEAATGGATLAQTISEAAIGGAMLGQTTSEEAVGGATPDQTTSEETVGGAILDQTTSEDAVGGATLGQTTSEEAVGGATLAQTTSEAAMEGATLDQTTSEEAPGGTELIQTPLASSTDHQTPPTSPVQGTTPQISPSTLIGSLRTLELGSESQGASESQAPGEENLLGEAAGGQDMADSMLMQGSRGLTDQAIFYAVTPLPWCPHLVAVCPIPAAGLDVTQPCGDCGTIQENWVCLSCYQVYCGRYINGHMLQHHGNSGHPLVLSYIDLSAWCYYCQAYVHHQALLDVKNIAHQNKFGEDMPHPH
Briefly: HDAC1/6 Enzyme Inhibitory Assay (HDAC-Glo I/II Assay kit), HDAC6. Conditions: 1 μM test compound; wells without enzyme = 100% inhibition; read-out: HDAC6 inhibitory rate (%) (1 μM). The essentials: as §1

The target in a further experiment is T3, HDAC9 enzyme (Homo sapiens, UniProt Q9UKV0).
T3 construct: transducing full length HDAC9 gene into Sf-9 insect cells; made in house; host or cells: Sf-9 insect cells
Briefly: HDAC9 Enzyme Inhibitory Assay (HDAC-Glo class IIa). Conditions: 1 μM test compound; wells without enzyme = 100% inhibition; read-out: HDAC9 inhibitory rate (%) (1 μM). The essentials: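 Luminescent HDAC-Glo class IIa readout after a 20 min room-temperature reaction; relative inhibition referenced to enzyme-free wells as 100%. Test compound first preincubated 60 min with Sf-9-expressed, Ni-NTA-purified full-length HDAC9 in pH 7.5 Tris buffer containing 135 mM NaCl, 0.6 mM glutathione and 0.01% Tween-20.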

T1 sequence (Q13547 whole entry): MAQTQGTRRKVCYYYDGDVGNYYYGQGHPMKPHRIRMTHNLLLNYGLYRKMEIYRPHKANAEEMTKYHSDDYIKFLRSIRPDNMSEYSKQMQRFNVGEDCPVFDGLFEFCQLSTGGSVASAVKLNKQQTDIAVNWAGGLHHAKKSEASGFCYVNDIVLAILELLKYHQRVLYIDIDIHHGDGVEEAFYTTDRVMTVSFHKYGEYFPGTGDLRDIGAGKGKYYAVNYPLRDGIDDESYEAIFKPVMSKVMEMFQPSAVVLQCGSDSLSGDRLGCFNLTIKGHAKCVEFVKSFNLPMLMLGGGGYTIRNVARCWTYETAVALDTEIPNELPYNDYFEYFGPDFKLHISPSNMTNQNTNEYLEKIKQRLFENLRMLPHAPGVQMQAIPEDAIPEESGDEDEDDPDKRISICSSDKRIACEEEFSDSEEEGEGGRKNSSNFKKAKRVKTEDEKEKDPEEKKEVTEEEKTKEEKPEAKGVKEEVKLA
T3 sequence (Q9UKV0 whole entry, species assumed): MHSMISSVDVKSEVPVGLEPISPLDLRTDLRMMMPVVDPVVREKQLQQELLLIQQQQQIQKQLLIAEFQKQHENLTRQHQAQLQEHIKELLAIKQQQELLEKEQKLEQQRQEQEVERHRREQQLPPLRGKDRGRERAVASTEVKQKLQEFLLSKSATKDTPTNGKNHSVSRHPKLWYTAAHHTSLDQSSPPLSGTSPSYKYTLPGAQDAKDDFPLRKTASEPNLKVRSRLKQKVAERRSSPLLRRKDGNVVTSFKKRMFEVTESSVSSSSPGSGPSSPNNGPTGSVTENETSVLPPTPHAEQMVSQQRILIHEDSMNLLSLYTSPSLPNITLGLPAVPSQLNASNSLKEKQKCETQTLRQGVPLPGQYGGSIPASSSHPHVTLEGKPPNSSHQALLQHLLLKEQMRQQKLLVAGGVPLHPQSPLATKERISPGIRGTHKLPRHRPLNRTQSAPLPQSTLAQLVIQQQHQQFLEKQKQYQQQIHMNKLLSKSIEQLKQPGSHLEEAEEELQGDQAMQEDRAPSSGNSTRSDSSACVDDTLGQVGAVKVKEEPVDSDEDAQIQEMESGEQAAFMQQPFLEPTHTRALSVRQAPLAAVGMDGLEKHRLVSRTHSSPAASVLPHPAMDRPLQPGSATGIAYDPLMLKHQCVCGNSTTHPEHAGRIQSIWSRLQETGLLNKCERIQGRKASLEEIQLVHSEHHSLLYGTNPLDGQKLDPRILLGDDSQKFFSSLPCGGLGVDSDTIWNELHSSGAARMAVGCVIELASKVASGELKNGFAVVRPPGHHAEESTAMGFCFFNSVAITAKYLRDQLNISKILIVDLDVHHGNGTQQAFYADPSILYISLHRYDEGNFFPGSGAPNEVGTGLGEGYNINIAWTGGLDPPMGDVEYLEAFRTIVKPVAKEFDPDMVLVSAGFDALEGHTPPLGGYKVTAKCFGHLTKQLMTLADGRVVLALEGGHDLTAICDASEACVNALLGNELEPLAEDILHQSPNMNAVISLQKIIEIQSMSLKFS

Turning to `C[C@H](c1ccccc1)N1CC[C@H]2CC[C@H](N3Cc4ccc(-c5noc(C(F)(F)F)n5)cc4C3=O)[C@H]21` [Example 63, 2-((3aR,6S,6aS)-1-((1R)-1-phenylethyl)octahydrocyclopenta[b]pyrrol-6-yl)-6-(5-(trifluoromethyl)-1,2,4-oxadiazol-3-yl)isoindolin-1-one], the values for the inhibition at 1 µM on HDAC1 enzyme, on HDAC6 enzyme and on HDAC9 enzyme were 15%, 90% and 82%, respectively.
As to `O=C1CCC2(CCC(N3Cc4ccc(-c5noc(C(F)(F)F)n5)cc4C3=O)CC2)N1` (stereo not drawn) [Example 64, (5r,8r)-8-(1-oxo-6-(5-(trifluoromethyl)-1,2,4-oxadiazol-3-yl)-1,3-dihydro-2H-isoindol-2-yl)-1-azaspiro[4.5]decan-2-one], the inhibition at 1 µM turned out to be 6% on HDAC1 enzyme, 93% on HDAC6 enzyme and 70% at HDAC9 enzyme.
The matching figures for `O=C(Cn1c(=O)oc2ccccc21)N1CCC(N2Cc3ccc(-c4noc(C(F)(F)F)n4)cc3C2=O)CC1` [Example 65, 3-(2-oxo-2-(4-(1-oxo-6-(5-(trifluoromethyl)-1,2,4-oxadiazol-3-yl)-1,3-dihydro-2H-isoindol-2-yl)piperidin-1-yl)ethyl)-1,3-benzoxazol-2(3H)-one]: 7%, 89% and 73%.
The matching figures for `O=C(c1ccccc1)N1CCC(N2Cc3ncc(-c4noc(C(F)(F)F)n4)cc3C2=O)CC1` [Example 67, 6-(1-benzoylpiperidin-4-yl)-3-(5-(trifluoromethyl)-1,2,4-oxadiazol-3-yl)-6,7-dihydro-5H-pyrrolo[3,4-b]pyridin-5-one]: 13%, 99% and 81%.
As to `O=C(Cc1ccc(F)cc1)N1CCC(N2Cc3ncc(-c4noc(C(F)(F)F)n4)cc3C2=O)CC1` [Example 68, 6-(1-((4-fluorophenyl)acetyl)piperidin-4-yl)-3-(5-(trifluoromethyl)-1,2,4-oxadiazol-3-yl)-6,7-dihydro-5H-pyrrolo[3,4-b]pyridin-5-one], the values for the inhibition at 1 µM at HDAC1 enzyme, at HDAC6 enzyme and on HDAC9 enzyme were 35%, 90% and 90%, respectively.
Consider `CC(=O)N1CCC(N2Cc3ncc(-c4noc(C(F)(F)F)n4)cc3C2=O)C1` (stereo not drawn) [Example 69, 6-(1-acetylpyrrolidin-3-yl)-3-(5-(trifluoromethyl)-1,2,4-oxadiazol-3-yl)-6,7-dihydro-5H-pyrrolo[3,4-b]pyridin-5-one], for which the inhibition at 1 µM on HDAC1 enzyme turned out to be 15%; on HDAC6 enzyme, 91%; at HDAC9 enzyme, 81%.
The corresponding values for `O=C(c1ccccc1)N1CCC(N2Cc3ncc(-c4noc(C(F)(F)F)n4)cc3C2=O)C1` (stereo not drawn) [Example 70, 6-(1-benzoylpyrrolidin-3-yl)-3-(5-(trifluoromethyl)-1,2,4-oxadiazol-3-yl)-6,7-dihydro-5H-pyrrolo[3,4-b]pyridin-5-one] are 52%, 96% and 95%.
The matching figures for `O=C(Cc1ccc(F)cc1)N1CCC(N2Cc3ncc(-c4noc(C(F)(F)F)n4)cc3C2=O)C1` (stereo not drawn) [Example 74, 6-(1-((4-fluorophenyl)acetyl)pyrrolidin-3-yl)-3-(5-(trifluoromethyl)-1,2,4-oxadiazol-3-yl)-6,7-dihydro-5H-pyrrolo[3,4-b]pyridin-5-one]: 33%, 86% and 90%.
The corresponding values for `CC(=O)N1CC(N2Cc3ncc(-c4noc(C(F)(F)F)n4)cc3C2=O)C1` [Example 75, 6-(1-acetylazetidin-3-yl)-3-(5-(trifluoromethyl)-1,2,4-oxadiazol-3-yl)-6,7-dihydro-5H-pyrrolo[3,4-b]pyridin-5-one] are 11%, 87% and 79%.
Turning to `O=C(c1ccccc1)N1CC(N2Cc3ncc(-c4noc(C(F)(F)F)n4)cc3C2=O)C1` [Example 76, 6-(1-benzoylazetidin-3-yl)-3-(5-(trifluoromethyl)-1,2,4-oxadiazol-3-yl)-6,7-dihydro-5H-pyrrolo[3,4-b]pyridin-5-one], the inhibition at 1 µM worked out at 31% on HDAC1 enzyme, 85% on HDAC6 enzyme and 89% on HDAC9 enzyme.
The matching figures for `O=C(Cc1ccc(F)cc1)N1CC(N2Cc3ncc(-c4noc(C(F)(F)F)n4)cc3C2=O)C1` [Example 77, 6-(1-((4-fluorophenyl)acetyl)azetidin-3-yl)-3-(5-(trifluoromethyl)-1,2,4-oxadiazol-3-yl)-6,7-dihydro-5H-pyrrolo[3,4-b]pyridin-5-one]: 30%, 92% and 90%.
The corresponding values for `CC(C)(C)OC(=O)N[C@@H]1COCC[C@H]1N1Cc2ccc(-c3noc(C(F)(F)F)n3)cc2C1=O` [Example 81, tert-butyl ((3S,4R)-4-(1-oxo-6-(5-(trifluoromethyl)-1,2,4-oxadiazol-3-yl)-1,3-dihydro-2H-isoindol-2-yl)tetrahydro-2H-pyran-3-yl)carbamate] are 16%, 100% and 62%.
The matching figures for `O=C(N[C@@H]1COCC[C@H]1N1Cc2ccc(-c3noc(C(F)(F)F)n3)cc2C1=O)C1CC1` [Example 82, N-((3S,4R)-4-(1-oxo-6-(5-(trifluoromethyl)-1,2,4-oxadiazol-3-yl)-1,3-dihydro-2H-isoindol-2-yl)tetrahydro-2H-pyran-3-yl)cyclopropanecarboxamide]: 10%, 99% and 61%.
Consider `CC1(C(=O)N[C@@H]2COCC[C@H]2N2Cc3ccc(-c4noc(C(F)(F)F)n4)cc3C2=O)COC1` [Example 83, 3-methyl-N-((3S,4R)-4-(1-oxo-6-(5-(trifluoromethyl)-1,2,4-oxadiazol-3-yl)-1,3-dihydro-2H-isoindol-2-yl)tetrahydro-2H-pyran-3-yl)oxetane-3-carboxamide], for which the inhibition at 1 µM was determined as 5% at HDAC1 enzyme, 101% on HDAC6 enzyme and 52% at HDAC9 enzyme.
The corresponding values for `O=C(N[C@@H]1CCCC[C@H]1N1Cc2ncc(-c3noc(C(F)(F)F)n3)cc2C1=O)C1CC1` [Example 84, N-((1R,2R)-2-(5-oxo-3-(5-(trifluoromethyl)-1,2,4-oxadiazol-3-yl)-5,7-dihydro-6H-pyrrolo[3,4-b]pyridin-6-yl)cyclohexyl) cyclopropanecarboxamide] are 18%, 102% and 85%.
The corresponding values for `CC(C)(C)OC(=O)N[C@H]1CCCC[C@H]1N1Cc2ccc(-c3noc(C(F)(F)F)n3)cc2C1=O` [Example 85, tert-butyl ((1S,2R)-2-(1-oxo-6-(5-(trifluoromethyl)-1,2,4-oxadiazol-3-yl)-1,3-dihydro-2H-isoindol-2-yl)cyclohexyl)carbamate] are 41%, 98% and 67%.
